Source: US20240417408A1, “SMALL MOLECULE INHIBITORS OF KRAS G12C MUTANT” (MERCK SHARP & DOHME CORP., priority 2021, published 2024)

Assays:
[1] = target: T1, Recombinant KRAS G12C mutant protein (amino acids 1-169, SEQ ID NO: 1) (Homo sapiens, UniProt P01116, G12C); experiment: Test Example 1: inhibitory activity on KRAS G12C nucleotide (GDP-GTP) exchange reaction in vitro; format: biochemical; conditions: BODIPY FL GDP-bound KRAS G12C incubated with compound at 25° C. for 1 hour, then SOS1 and GMPPNP, read-out: GNE IC50
T1 construct: His6 (N); TEV protease site (ENLYFQG; named from own knowledge) (N); made in house; host or cells: E. coli
T1 sequence (P01116 with tags, fused parts or gaps isoform P01116-2 G12C): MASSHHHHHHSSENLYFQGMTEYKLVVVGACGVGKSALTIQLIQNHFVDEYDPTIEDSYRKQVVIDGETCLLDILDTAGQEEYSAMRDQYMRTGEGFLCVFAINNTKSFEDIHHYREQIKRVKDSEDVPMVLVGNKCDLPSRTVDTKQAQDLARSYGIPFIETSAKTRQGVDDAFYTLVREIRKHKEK
Procedure: Test Example 1: Evaluation of inhibitory activity of compounds on KRAS G12C nucleotide (GDP-GTP) exchange reaction in vitro
Recombinant KRAS G12C mutant protein (amino acids 1-169, SEQ ID NO: 1) and cleaved recombinant SOS1 (amino acids 564-1049, SEQ ID NO:2) proteins were expressed in E. coli and purified by affinity chromatography.
To prepare BODIPY FL GDP-bound KRAS G12C protein, 50 μM KRAS G12C protein was incubated with 0.5 mM BODIPY FL GDP in a loading buffer (20 mM Tris-HCl (pH 7.5), 50 mM NaCl, 1 mM DTT and 2.5 mM EDTA) for 1 hour on ice. After the incubation, MgCl2 was added to a final concentration of 10 mM, followed by incubation at room temperature for 30 minutes. The mixture was allowed to pass through a NAP-5 column to remove free nucleotides and purified BODIPY FL GDP-bound KRAS G12C protein was used for compound evaluation.
For the measurement of the inhibitory activity of compounds on GDP-GTP exchange rate of recombinant KRAS G12C, BODIPY FL GDP-bound KRAS G12C protein was incubated with various concentrations of compound in a reaction buffer (20 mM Tris-HCl (pH 7.5), 100 mM NaCl, 1 mM MgCl2, 2 mM DTT, 0.1% Tween 20) at 25° C. for 1 hour. After the incubation, recombinant SOS1 and Guanosine-5′-[(β,γ)-imido]triphosphate, Tetralithium salt (GMPPNP) (Jena Bioscience GmbH) were added and incubated at room temperature for 30 minutes to proceed SOS1-dependent GDP-GTP exchange reaction on KRAS G12C. Replacement of BODIPY FL GDP by GMPPNP was measured by calculating the ratio of fluorescence intensities of BODIPY FL before and after the exchange reaction. Inhibition % was calculated by setting the fluorescence ratio from the reaction without test compound (DMSO control) and the fluorescence ratio from the reaction without SOS1 and GMPPNP as 0% and 100% inhibition, respectively. IC50 values were calculated from dose titration curve using curve fitting by XLfit software (IDBS).

MIA PaCa-2 cells = experiment: Test Example 3: growth inhibition activity on KRAS-G12C mutant cell line (MIA PaCa-2); format: cell-based; conditions: Homo sapiens, 72 h, MIA PaCa-2, 3-day culture, CellTiter-Glo 3D, read-out: CTX MiaPaCa IC50
Procedure: Test Example 3: Assay of Growth Inhibition Activity on KRAS-G12C Mutant Cell Line (MIA PaCa-2) (In Vitro)
MIA PaCa-2 cells (provided by Sumitomo Dainippon Pharma Co., Ltd.), which are a KRAS-G12C mutant human pancreas cancer cell line, were suspended in a 10% fetal bovine serum-containing RPMI1640 medium (manufactured by Fujifilm Wako Pure Chemical Corporation.). The cell suspension was seeded into each well of a 384-well U bottom microplate and cultured in an incubator containing 5% CO2 gas at 37° C. for 1 day. The compounds obtained in the Examples section were used as test compounds and were dissolved in DMSO, respectively, and each test compound was diluted with DMSO to give a concentration 500 times the final concentration. The resultant solution of the test compound in DMSO was diluted with the medium used for suspending cells and added to each well of the cell-culture plate to give a DMSO final concentration of 0.2%, followed by culture in an incubator containing 5% CO2 gas at 37° C. for another 3 days. The cell count after 3-day culture in the presence of the test compound was measured using CellTiter-Glo 3D Reagent (manufactured by Promega Corporation). To all cells were added with CellTiter-Glo 3D Reagent and mixed for 10 minutes. 30 minutes after mixing, luminescence was measured by a plate reader. The growth inhibition rate was calculated from the following equation, and the concentration of the test compound at which 50% inhibition was achieved (IC50 (nM)) was determined.
[formula] • T: the emission intensity in a well into which a test compound was added. • C: the emission intensity in a well into which a test compound was not added.

[2] = target: T2, interaction between KRAS G12C and cRAF-RBD (Homo sapiens, UniProt P01116, G12C); experiment: Test Example 2: inhibitory activity on interaction between KRAS G12C and cRAF (Alpha technology); format: binding; conditions: GMPPNP-bound KRAS G12C incubated with compound at 25° C. for 1 hour, then cRAF-RBD
T2 construct: TEV protease site (ENLYFQG); made in house; host or cells: E. coli
T2 sequence (P01116 with tags, fused parts or gaps isoform P01116-2 G12C): as above
Procedure: Test Example 2: Evaluation of Inhibitory Activity of Compounds on Interaction Between KRAS G12C and cRAF (In Vitro)
Interaction between recombinant KRAS G12C mutant protein (SEQ ID NO: 1) and cRAF RAS-binding domain (cRAF-RBD, amino acids 50-132, Jena Biosciences GmbH) was measured using Alpha technology (PerkinElmer Inc.).
Recombinant KRAS G12C protein with an N-terminal His-tag was expressed in E. coli and purified by affinity chromatography. To prepare GTP-bound form and GDP-bound form of KRAS G12C protein, 50 μM KRAS G12C protein was incubated with 1 mM GMPPNP (Jena Bioscience GmbH) and 1 mM GDP, respectively, in a loading buffer (20 mM Tris-HCl (pH 7.5), 50 mM NaCl, 1 mM DTT and 2.5 mM EDTA) for 1 hour on ice. After the incubation, MgCl2 was added to a final concentration of 10 mM, followed by incubation at room temperature for 30 minutes. The mixture was allowed to pass through a NAP-5 column to remove free nucleotides and purified, and the resultant nucleotide-bound KRAS G12C protein was used for compound evaluation.
For the measurement of the inhibitory activity of compounds on interaction between KRAS G12C and cRAF-RBD, GMPPNP-bound KRAS G12C protein was incubated with various concentrations of compound in a reaction buffer (20 mM Tris-HCl (pH 7.5), 100 mM NaCl, 1 mM MgCl2, 1 mM TCEP, 0.1% Tween 20) at 25° C. for 1 hour. After the incubation, recombinant cRAF-RBD and Alpha detection reagents were added and incubated at room temperature for 1.5 hours for binding. Interaction of KRAS G12C and cRAF-RBD was monitored by measuring Alpha signal. Inhibition % was calculated using the signal from the reaction without test compound (DMSO control) as 0% inhibition and the signal from the reaction using GDP-bound KRAS G12C in place of GMPPNP-bound KRAS G12C as 100% inhibition. IC50 values were calculated from dose titration curve using curve fitting by XLfit software (IDBS).

Compound | IC50 [1] [nM] | IC50 (MIA PaCa-2 cells) [nM] | IC50 [2] [nM]
C#Cc1cccc2cc(O)cc([C@@H]3Cc4nc(OCC5(CN6CCOCC6)CC5)nc(N5CCN(C(=O)/C=C/CN6CCC(OC)CC6)[C@@H](CC#N)C5)c4CO3)c12 [Example 1, 2-((S)-4-((S)-7-(8-ethynyl-3-hydroxynaphthalen-1-yl)-2-((1-(morpholinomethyl)cyclopropyl)methoxy)-7,8-dihydro-5H-pyrano[4,3-d]pyrimidin-4-yl)-1-((E)-4-(4-methoxypiperidin-1-yl)but-2-enoyl)piperazin-2-yl)acetonitrile] | 1.02 | 7.15 | 25.4
CO[C@H]1CC[C@H](NC/C=C/C(=O)N2CCN(c3nc(OC[C@@H]4CCCN4C)nc4c3COC(c3cccc5ccccc35)C4)C[C@@H]2CC#N)CC1 (stereo partly drawn) [Example 2, 2-((2S)-1-((E)-4-(((1r,4S)-4-methoxycyclohexyl)amino)-but-2-enoyl)-4-(2-(((S)-1-methylpyrrolidin-2-yl)meth-oxy)-7-(naphthalen-1-yl)-7,8-dihydro-5H-pyrano[4,3-d]pyrimidin-4-yl)piperazin-2-yl)acetonitrile] | 3.53 | 111 | 43700
CN1CCC[C@H]1COc1nc2c(c(N3CCN(C(=O)/C=C/CNC4CC5CCC(C4)O5)[C@@H](CC#N)C3)n1)COC(c1cccc3ccccc13)C2 (stereo partly drawn) [Example 3, 2-((2S)-1-((E)-4-((8-oxa-bicyclo[3.2.1]octan-3-yl)-amino)but-2-enoyl)-4-(2-(((S)-1-methylpyrrolidin-2-yl)methoxy)-7-(naphthalen-1-yl)-7,8-dihydro-5H-pyrano[4,3-d]pyrimidin-4-yl)piperazin-2-yl)acetonitrile] | 5.22 | 100 | 11500
COC1CCN(C/C=C/C(=O)N2CCN(c3nc(OC[C@@H]4CCCN4C)nc4c3COC(c3cccc5ccccc35)C4)C[C@@H]2CC#N)CC1 (stereo partly drawn) [Example 4, 2-((2S)-1-((E)-4-(4-methoxy-piperidin-1-yl)but-2-enoyl)-4-(2-(((S)-1-methylpyrroli-din-2-yl)methoxy)-7-(naph-thalen-1-yl)-7,8-dihydro-5H-pyrano[4,3-d]pyrimidin-4-yl)piperazin-2-yl)acetonitrile] | 7.19 | 333 | 9580
COC1CCN(C/C=C/C(=O)N2CCN(c3nc(OC[C@@H]4CCCN4C)nc4c3COC(c3cccc5cccc(Br)c35)C4)C[C@@H]2CC#N)CC1 (stereo partly drawn) [Example 5, 2-((2S)-4-(7-(8-bromonaph-thalen-1-yl)-2-(((S)-1-meth-ylpyrrolidin-2-yl)methoxy)-7,8-dihydro-5H-pyrano[4,3-d]pyrimidin-4-yl)-1-((E)-4-(4-methoxypiperidin-1-yl)-but-2-enoyl)piperazin-2-yl)-acetonitrile] | 2.63 | 177 | 2820
C#Cc1cccc2cccc(C3Cc4nc(OCC5(CN6CCOCC6)CC5)nc(N5CCN(C(=O)/C=C/CN6CCC(OC)CC6)[C@@H](CC#N)C5)c4CO3)c12 (stereo partly drawn) [Example 6, 2-((2S)-4-(7-(8-ethynylnaph-thalen-1-yl)-2-((1-(morpho-linomethyl)cyclopropyl)-methoxy)-7,8-dihydro-5H-pyrano[4,3-d]pyrimidin-4-yl)-1-((E)-4-(4-methoxy-piperidin-1-yl)but-2-enoyl)-piperazin-2-yl)acetonitrile] | 15.4 | 268 | 1260
C#Cc1cccc2cc(O)cc([C@@H]3Cc4nc(OC[C@@H]5CCCN5C)nc(N5CCN(C(=O)/C=C/CN6CCC(OC)CC6)[C@@H](CC#N)C5)c4CO3)c12 [Example 7, 2-((S)-4-((S)-7-(8-ethynyl-3-hydroxynaphthalen-1-yl)-2-(((S)-1-methylpyrrolidin-2-yl)methoxy)-7,8-dihydro-5H-pyrano[4,3-d]pyrimidin-4-yl)-1-((E)-4-(4-methoxy-piperidin-1-yl)but-2-enoyl)-piperazin-2-yl)acetonitrile] | 0.88 | 4.36 | 50.6
C#Cc1cccc2cc(O)cc([C@@H]3Cc4nc(OC[C@@H]5CCCN5C)nc(N5CCN(C(=O)/C=C/CN[C@H]6CC[C@H](OC)CC6)[C@@H](CC#N)C5)c4CO3)c12 [Example 8, 2-((S)-4-((S)-7-(8-ethynyl-3-hydroxynaphthalen-1-yl)-2-(((S)-1-methylpyrrolidin-2-yl)methoxy)-7,8-dihydro-5H-pyrano[4,3-d]pyrimidin-4-yl)-1-((E)-4-(((1r,4S)-4-methoxycyclohexyl)amino)-but-2-enoyl)piperazin-2-yl)-acetonitrile] | 0.54 | 6.4 | 64.4
C#Cc1cccc2cc(O)cc(C3Cc4nc(OC[C@@H]5CCCN5C)nc(N5CCN(C(=O)/C=C/CN[C@H]6CC[C@H](OC)CC6)[C@@H](CC#N)C5)c4CO3)c12 (stereo partly drawn) [Example 9, 2-((2S)-4-(7-(8-ethynyl-3-hydroxynaphthalen-1-yl)-2-(((S)-1-methylpyrrolidin-2-yl)methoxy)-7,8-dihydro-5H-pyrano[4,3-d]pyrimidin-4-yl)-1-((E)-4-(((1r,4S)-4-methoxycyclohexyl)amino)-but-2-enoyl)piperazin-2-yl)-acetonitrile] | 1.27 | 40.4 | 133
COC1CCN(C/C=C/C(=O)N2CCN(c3nc(OC[C@@H]4CCCN4C)nc4c3CO[C@H](c3cc(O)cc5cccc(Br)c35)C4)C[C@@H]2CC#N)CC1 [Example 10, 2-((S)-4-((S)-7-(8-bromo-3-hydroxynaphthalen-1-yl)-2-(((S)-1-methylpyrrolidin-2-yl)methoxy)-7,8-dihydro-5H-pyrano[4,3-d]pyrimidin-4-yl)-1-((E)-4-(4-methoxy-piperidin-1-yl)but-2-enoyl)-piperazin-2-yl)acetonitrile] | 0.73 | 10.1 | 107
